Data taken from the supplement of paper PMC12076712.

Columns and labels:
Test in all cases: pIC50, kinobeads binding competition
PKMYT1 = target: T1, PKMYT1 (UniProt Q99640)
T1 sequence (whole entry): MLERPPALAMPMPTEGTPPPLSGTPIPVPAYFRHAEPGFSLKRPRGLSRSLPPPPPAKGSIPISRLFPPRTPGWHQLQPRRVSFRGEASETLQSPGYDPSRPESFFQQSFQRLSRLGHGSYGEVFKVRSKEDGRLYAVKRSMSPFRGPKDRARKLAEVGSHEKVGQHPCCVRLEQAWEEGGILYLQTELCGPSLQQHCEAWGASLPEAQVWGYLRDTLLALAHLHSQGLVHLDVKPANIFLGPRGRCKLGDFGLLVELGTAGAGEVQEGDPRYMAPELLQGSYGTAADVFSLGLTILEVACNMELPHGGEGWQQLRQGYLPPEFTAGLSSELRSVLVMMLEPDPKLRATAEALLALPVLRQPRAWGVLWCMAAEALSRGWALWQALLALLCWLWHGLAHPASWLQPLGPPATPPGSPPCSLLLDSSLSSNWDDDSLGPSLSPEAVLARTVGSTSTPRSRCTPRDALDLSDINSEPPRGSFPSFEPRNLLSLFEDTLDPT
Summary of the method: (§1)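 Jurkat cells were exposed alive to nine compound concentrations (top 30 μM, 1:4 steps) or vehicle for 60 min at 37 °C and then lysed. In a second format, nine concentrations (top 30 μM, 1:5 steps) were incubated for 60 min at 4 °C with Jurkat lysate or with a 1:1:1:1 lysate mix of HEK293, K-562, HepG2 and placenta. Proteins captured on Kinobeads were digested and quantified by TMT10 LC-MS/MS. pIC50 values were derived from logistic dose-response fits (R drc package) of fold changes relative to vehicle, in biological duplicates.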

PIM3 = PIM3 (UniProt Q86V86)
Summary of the method: as §1

UniProt Q9NYL2 = target: UniProt Q9NYL2
Summary of the method: as §1

UniProt P36507 = target: UniProt P36507
Summary of the method: as §1

DYRK1B = DYRK1B (UniProt Q9Y463)
Summary of the method: as §1

UniProt P27361 = target: UniProt P27361
Summary of the method: as §1

ACVR1 = target: T2, ACVR1 (UniProt Q04771)
T2 sequence (whole entry): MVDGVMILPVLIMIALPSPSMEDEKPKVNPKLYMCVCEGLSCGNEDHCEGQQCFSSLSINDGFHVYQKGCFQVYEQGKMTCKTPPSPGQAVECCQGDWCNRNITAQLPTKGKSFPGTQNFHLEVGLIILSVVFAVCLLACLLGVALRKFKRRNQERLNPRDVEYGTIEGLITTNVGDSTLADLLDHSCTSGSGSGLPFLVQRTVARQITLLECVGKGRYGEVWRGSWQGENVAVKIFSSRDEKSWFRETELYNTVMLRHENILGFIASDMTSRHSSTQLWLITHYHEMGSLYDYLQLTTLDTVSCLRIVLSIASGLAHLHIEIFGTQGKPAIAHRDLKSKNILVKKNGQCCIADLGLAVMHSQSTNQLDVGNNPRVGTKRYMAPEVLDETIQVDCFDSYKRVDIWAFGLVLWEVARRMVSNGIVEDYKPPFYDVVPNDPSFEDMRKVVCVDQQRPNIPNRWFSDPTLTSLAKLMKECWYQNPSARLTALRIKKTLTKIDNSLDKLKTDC
Summary of the method: as §1

EPHA2 = EPHA2 (UniProt P29317); conditions: cell material: Lysate mix
Summary of the method: as §1

UniProt P21127 = target: UniProt P21127
Summary of the method: as §1

UniProt P51812 = target: UniProt P51812
Summary of the method: as §1

CIT = CIT (UniProt O14578)
Summary of the method: as §1

PRKAA2 = PRKAA2 (UniProt P54646); conditions: cell material: Lysate mix
Summary of the method: as §1

EGFR = EGFR (UniProt P00533); conditions: cell material: Lysate mix
Summary of the method: as §1

Hck = Hck (UniProt P08631); conditions: cell material: Lysate mix
Summary of the method: as §1

CAMK2B = CAMK2B (UniProt Q13554); conditions: cell material: Lysate mix
Summary of the method: as §1

TEC = target: T3, TEC (UniProt P42680)
T3 sequence (whole entry): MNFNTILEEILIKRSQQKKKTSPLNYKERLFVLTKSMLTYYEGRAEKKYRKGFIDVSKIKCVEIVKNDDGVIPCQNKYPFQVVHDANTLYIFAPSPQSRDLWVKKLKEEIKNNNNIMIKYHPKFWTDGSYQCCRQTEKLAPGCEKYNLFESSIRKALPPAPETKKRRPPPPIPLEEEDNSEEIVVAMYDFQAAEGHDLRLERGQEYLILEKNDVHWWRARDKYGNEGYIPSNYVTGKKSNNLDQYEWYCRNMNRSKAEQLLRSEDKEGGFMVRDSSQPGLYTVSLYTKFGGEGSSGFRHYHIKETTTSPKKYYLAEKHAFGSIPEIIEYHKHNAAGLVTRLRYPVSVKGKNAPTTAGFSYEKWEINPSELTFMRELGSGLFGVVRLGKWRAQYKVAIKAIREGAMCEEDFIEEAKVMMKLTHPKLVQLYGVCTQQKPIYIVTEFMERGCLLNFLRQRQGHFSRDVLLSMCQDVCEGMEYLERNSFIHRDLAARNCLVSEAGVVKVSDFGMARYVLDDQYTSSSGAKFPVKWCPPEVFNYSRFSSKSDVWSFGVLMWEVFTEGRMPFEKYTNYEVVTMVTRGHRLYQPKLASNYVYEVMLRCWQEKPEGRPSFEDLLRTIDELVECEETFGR
Summary of the method: as §1

UniProt O96017 = target: UniProt O96017
Summary of the method: as §1

BMPR1B = BMPR1B (UniProt O00238); conditions: cell material: Lysate mix
Summary of the method: as §1

TYK2 = TYK2 (UniProt P29597)
Summary of the method: as §1

Measured: pIC50

EGFR, sequence (P00533 whole entry): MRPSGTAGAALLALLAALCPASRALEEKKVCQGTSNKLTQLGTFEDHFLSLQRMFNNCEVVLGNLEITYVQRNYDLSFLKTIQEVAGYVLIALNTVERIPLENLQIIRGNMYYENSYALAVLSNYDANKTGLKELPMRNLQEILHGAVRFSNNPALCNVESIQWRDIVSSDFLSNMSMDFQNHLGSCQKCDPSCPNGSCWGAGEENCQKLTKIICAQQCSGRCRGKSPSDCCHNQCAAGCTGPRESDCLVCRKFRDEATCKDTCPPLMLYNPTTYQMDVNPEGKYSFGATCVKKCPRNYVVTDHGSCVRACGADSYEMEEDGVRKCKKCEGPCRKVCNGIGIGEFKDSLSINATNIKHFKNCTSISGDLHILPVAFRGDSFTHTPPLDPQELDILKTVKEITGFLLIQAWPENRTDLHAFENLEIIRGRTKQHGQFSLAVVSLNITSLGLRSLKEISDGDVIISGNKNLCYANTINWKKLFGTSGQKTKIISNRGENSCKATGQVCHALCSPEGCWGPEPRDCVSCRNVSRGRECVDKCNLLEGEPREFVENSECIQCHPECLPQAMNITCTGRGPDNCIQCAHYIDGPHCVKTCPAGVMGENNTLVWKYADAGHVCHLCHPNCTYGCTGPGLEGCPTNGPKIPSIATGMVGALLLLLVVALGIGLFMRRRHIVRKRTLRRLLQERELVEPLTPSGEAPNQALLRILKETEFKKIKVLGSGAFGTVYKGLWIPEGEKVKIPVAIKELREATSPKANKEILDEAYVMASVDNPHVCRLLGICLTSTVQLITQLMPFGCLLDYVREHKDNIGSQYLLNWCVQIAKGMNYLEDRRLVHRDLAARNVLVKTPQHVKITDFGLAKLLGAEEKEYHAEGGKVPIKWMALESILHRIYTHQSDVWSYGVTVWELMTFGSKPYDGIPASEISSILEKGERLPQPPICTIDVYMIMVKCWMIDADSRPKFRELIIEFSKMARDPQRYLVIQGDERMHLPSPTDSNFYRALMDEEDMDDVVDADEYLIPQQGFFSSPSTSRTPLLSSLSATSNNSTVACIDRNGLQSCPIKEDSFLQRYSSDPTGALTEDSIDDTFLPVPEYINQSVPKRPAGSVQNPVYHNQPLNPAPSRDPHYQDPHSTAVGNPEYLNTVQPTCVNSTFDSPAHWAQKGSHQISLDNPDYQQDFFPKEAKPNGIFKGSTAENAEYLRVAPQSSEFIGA
EPHA2, sequence (P29317 whole entry): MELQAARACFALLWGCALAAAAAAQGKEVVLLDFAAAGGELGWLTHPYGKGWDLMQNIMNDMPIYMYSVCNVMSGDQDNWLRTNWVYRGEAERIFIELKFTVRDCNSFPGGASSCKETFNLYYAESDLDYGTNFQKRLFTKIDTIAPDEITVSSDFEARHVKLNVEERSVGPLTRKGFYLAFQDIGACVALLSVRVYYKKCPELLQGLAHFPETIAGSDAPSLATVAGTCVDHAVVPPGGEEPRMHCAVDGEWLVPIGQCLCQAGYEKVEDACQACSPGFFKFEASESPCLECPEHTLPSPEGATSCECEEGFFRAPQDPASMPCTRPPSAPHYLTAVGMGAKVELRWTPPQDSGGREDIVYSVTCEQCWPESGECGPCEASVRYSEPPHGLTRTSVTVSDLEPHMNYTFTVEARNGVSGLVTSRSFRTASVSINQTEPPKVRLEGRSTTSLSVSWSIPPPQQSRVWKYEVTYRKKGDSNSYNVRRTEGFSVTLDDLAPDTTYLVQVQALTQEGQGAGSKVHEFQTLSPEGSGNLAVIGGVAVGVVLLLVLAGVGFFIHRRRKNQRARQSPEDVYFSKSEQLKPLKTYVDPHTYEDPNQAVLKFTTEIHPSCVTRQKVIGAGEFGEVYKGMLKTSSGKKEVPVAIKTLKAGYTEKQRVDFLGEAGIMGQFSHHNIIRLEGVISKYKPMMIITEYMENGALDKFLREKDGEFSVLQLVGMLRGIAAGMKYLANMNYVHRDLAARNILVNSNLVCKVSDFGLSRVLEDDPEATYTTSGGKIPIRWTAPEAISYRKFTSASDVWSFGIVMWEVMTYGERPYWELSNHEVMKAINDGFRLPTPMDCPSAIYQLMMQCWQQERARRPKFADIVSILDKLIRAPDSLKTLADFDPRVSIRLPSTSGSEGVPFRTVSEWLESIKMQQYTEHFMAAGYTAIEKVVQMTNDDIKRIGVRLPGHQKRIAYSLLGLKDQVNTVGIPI
UniProt P36507, sequence (P36507 whole entry): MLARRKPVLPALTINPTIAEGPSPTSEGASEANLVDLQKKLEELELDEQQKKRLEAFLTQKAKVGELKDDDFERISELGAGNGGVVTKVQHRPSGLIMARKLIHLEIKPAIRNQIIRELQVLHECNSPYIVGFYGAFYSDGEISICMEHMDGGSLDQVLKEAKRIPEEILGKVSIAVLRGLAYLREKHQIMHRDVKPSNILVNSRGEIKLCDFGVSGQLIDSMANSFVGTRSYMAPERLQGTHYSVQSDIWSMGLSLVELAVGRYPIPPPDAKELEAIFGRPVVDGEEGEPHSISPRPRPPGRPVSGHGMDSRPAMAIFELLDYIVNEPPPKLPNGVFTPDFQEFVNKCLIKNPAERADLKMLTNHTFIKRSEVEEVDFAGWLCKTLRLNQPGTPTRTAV
DYRK1B, sequence (Q9Y463 whole entry, looked up): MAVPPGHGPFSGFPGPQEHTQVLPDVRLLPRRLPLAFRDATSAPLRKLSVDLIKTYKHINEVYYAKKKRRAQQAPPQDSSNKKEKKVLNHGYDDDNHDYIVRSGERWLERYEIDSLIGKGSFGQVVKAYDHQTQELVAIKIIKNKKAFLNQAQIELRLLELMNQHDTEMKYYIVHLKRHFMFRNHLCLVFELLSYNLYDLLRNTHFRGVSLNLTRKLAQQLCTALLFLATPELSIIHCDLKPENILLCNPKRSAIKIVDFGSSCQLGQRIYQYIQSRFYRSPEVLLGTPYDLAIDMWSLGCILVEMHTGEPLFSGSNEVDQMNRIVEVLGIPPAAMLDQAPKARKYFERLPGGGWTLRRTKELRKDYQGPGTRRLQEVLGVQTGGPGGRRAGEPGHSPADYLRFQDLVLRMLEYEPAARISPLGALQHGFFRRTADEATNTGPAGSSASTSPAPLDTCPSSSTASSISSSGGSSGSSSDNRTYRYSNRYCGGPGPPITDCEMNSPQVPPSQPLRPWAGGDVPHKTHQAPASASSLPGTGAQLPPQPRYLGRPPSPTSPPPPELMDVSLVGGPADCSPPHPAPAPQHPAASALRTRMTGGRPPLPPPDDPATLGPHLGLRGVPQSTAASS
PRKAA2, sequence (P54646 whole entry, looked up): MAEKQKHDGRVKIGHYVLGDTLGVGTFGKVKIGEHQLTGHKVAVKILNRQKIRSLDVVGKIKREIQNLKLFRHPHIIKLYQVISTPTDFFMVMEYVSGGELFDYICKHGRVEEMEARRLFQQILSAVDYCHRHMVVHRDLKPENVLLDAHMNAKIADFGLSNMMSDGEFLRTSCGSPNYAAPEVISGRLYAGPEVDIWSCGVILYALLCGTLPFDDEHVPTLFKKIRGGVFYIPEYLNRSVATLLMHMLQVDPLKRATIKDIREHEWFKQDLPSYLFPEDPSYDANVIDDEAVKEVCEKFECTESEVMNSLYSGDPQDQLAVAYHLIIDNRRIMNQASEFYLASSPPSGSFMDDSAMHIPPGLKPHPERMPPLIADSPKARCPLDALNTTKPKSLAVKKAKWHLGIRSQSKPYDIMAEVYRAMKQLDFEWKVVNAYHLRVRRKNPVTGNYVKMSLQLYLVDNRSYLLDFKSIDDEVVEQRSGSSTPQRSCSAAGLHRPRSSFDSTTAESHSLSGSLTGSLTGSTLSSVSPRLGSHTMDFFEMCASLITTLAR
UniProt P51812, sequence (P51812 whole entry): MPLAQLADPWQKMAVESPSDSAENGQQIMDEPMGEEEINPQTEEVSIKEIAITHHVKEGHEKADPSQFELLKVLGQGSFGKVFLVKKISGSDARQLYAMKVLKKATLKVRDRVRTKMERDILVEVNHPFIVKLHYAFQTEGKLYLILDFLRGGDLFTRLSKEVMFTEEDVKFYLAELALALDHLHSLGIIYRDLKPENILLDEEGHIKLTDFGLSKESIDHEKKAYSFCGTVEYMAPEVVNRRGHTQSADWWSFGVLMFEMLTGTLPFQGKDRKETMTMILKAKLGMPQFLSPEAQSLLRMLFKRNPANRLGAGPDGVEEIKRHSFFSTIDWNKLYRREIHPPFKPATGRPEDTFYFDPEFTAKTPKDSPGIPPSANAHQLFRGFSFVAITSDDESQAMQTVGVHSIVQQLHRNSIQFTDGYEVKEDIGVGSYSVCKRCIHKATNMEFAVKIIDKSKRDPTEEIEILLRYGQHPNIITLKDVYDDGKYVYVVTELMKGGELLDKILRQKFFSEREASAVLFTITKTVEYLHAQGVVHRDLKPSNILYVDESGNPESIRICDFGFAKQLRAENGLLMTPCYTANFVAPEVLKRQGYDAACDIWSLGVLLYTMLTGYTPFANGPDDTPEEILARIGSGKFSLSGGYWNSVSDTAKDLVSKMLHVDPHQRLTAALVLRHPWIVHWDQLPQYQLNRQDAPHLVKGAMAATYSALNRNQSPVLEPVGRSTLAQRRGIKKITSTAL
UniProt O96017, sequence (O96017 whole entry): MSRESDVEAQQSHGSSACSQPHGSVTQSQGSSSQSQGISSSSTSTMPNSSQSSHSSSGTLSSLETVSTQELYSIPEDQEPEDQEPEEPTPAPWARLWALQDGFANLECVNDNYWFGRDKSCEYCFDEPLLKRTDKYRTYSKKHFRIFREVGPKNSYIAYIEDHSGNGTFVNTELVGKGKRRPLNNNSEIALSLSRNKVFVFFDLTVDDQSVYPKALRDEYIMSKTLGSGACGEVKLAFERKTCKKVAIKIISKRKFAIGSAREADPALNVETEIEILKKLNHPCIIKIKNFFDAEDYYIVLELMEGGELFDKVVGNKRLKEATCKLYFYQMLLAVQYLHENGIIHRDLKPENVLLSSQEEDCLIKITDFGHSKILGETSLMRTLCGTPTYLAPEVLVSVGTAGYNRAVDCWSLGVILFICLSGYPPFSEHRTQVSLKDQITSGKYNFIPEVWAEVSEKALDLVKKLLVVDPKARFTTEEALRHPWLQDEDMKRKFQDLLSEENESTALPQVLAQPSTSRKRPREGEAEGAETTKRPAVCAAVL

O=C(NCCNC(=O)c1cc(Nc2cc(C3CC3)[nH]n2)nc(N2CCN(Cc3ccc(S(=O)(=O)F)cc3)CC2)n1)OC1CC/C=C/CCC1 (stereo unspecified)
4.92: UniProt O96017; cell material: Jurkat lysate
5.78: UniProt O96017; cell material: Jurkat cells
4.71: UniProt O96017; cell material: Lysate mix
< 4.52: PKMYT1; cell material: Jurkat lysate | PKMYT1; cell material: Lysate mix | PIM3; cell material: Jurkat lysate | PIM3; cell material: Lysate mix | UniProt Q9NYL2; cell material: Jurkat cells | UniProt Q9NYL2; cell material: Jurkat lysate | UniProt Q9NYL2; cell material: Lysate mix | UniProt P36507; cell material: Jurkat lysate | UniProt P36507; cell material: Lysate mix | DYRK1B; cell material: Jurkat lysate | DYRK1B; cell material: Lysate mix | UniProt P27361; cell material: Jurkat lysate | UniProt P27361; cell material: Lysate mix | ACVR1; cell material: Jurkat lysate | ACVR1; cell material: Lysate mix | EPHA2 | UniProt P21127; cell material: Jurkat cells | UniProt P21127; cell material: Jurkat lysate | UniProt P21127; cell material: Lysate mix | UniProt P51812; cell material: Jurkat lysate | UniProt P51812; cell material: Lysate mix | CIT; cell material: Jurkat cells | CIT; cell material: Jurkat lysate | CIT; cell material: Lysate mix | EGFR | Hck | CAMK2B | TEC; cell material: Jurkat lysate | TEC; cell material: Lysate mix | BMPR1B | TYK2; cell material: Jurkat cells | TYK2; cell material: Jurkat lysate | TYK2; cell material: Lysate mix
4.8: DYRK1B; cell material: Jurkat cells | TEC; cell material: Jurkat cells
5.49: PIM3; cell material: Jurkat cells
5.5: PRKAA2
4.68: ACVR1; cell material: Jurkat cells
5.27: UniProt P36507; cell material: Jurkat cells
5.86: UniProt P51812; cell material: Jurkat cells

CCNC(=O)c1cc(Nc2cc(C)[nH]n2)nc(N2CCN(Cc3ccc(S(=O)(=O)F)cc3)CC2)n1
5.78: EGFR
4.87: UniProt P51812; cell material: Lysate mix
7.35: PRKAA2
< 4.52: PKMYT1; cell material: Lysate mix | PIM3; cell material: Lysate mix | UniProt Q9NYL2; cell material: Lysate mix | UniProt P36507; cell material: Lysate mix | DYRK1B; cell material: Lysate mix | UniProt P27361; cell material: Lysate mix | ACVR1; cell material: Lysate mix | EPHA2 | UniProt P21127; cell material: Lysate mix | CIT; cell material: Lysate mix | CAMK2B | TEC; cell material: Lysate mix | BMPR1B | TYK2; cell material: Lysate mix
5.62: Hck
4.92: UniProt O96017; cell material: Lysate mix

CCNC(=O)c1cc(Nc2cc(C3CC3)[nH]n2)nc(N2CCN(Cc3ccc(S(=O)(=O)F)cc3)CC2)n1
4.75: UniProt O96017; cell material: Lysate mix
5.8: Hck
5.08: DYRK1B; cell material: Lysate mix | BMPR1B
5.3: EGFR
4.74: ACVR1; cell material: Lysate mix
4.94: UniProt P27361; cell material: Lysate mix
5.28: UniProt P51812; cell material: Lysate mix
7.04: PRKAA2
< 4.52: PKMYT1; cell material: Lysate mix | PIM3; cell material: Lysate mix | UniProt Q9NYL2; cell material: Lysate mix | EPHA2 | UniProt P21127; cell material: Lysate mix | CIT; cell material: Lysate mix | CAMK2B | TEC; cell material: Lysate mix | TYK2; cell material: Lysate mix
5.73: UniProt P36507; cell material: Lysate mix
